Measured values published in US20220332774A1, “THERAPEUTIC MITOCHONDRIAL PEPTIDES” (priority 2019, published 2022).

Legend:
C2C12 Cells = test: Glucose utilization in cultured C2C12 cells (myotubes); type: cell-based, mouse; conditions: glucose concentration in medium relative to untreated cells; 5 μM peptide, 22 h
How it was run: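 Differentiated mouse myotubes (5 days in 2% horse serum) serum-starved 5 h, then treated 22 h at 37 °C with peptide at 5 μM final (0.1% DMSO) in low-glucose (1 g/L) DMEM. Glucose remaining in medium measured colorimetrically at 570 nm. Expressed as percent of untreated control, from 2–3 experiments in triplicate.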

3T3-L1 Mouse Adipocytes = test: Free fatty acid levels in cultured 3T3-L1 mouse adipocytes (isoproterenol stimulated); type: cell-based; conditions: free fatty acid in medium; 5 μM peptide, 20-22 h pre-incubation then 3 h with 0.1 nM isoproterenol; isoproterenol alone = 100%
How it was run: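 3T3-L1 cells differentiated 12 days, insulin withdrawn, then peptides added on day 13 at 5 μM (0.1% DMSO) for 20-22 h at 37° C. After 3 h in assay buffer, medium free fatty acids read at 540 nm. Values expressed as percent of 0.1 nM isoproterenol-alone control.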

H4-IIE Cells = test: Glucose production in cultured H4-IIE cells; type: cell-based, rat; conditions: glucose concentration in medium relative to untreated cells; 5 μM peptide, 24 h
How it was run: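 Rat H4-IIE hepatoma cells primed overnight in glucose-free DMEM with 2 mM pyruvate and 10 mM lactate, then treated 24 h at 37 °C with 5 μM peptide (0.1% DMSO; concentration assumes ~2000 Da). Medium glucose measured colorimetrically at 570 nm. Values are percent of untreated-cell glucose production; 0.5-1 nM insulin served as inhibitor reference.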

168 (MYCNWDCSGE) [compound 168]
Percent of Control Activity (C2C12 Cells): 103%
Percent of Isoproterenol Control Activity (3T3-L1 Mouse Adipocytes): 108%
Percent of Control Activity (H4-IIE Cells): 120%

169 (MYLNGTCSAS) [compound 169]
Percent of Control Activity (C2C12 Cells): 107%
Percent of Isoproterenol Control Activity (3T3-L1 Mouse Adipocytes): 110%
Percent of Control Activity (H4-IIE Cells): 109%

170 (MYNYAKAPTL) [compound 170]
Percent of Control Activity (C2C12 Cells): 106%
Percent of Isoproterenol Control Activity (3T3-L1 Mouse Adipocytes): 95%
Percent of Control Activity (H4-IIE Cells): 109%

171 (MYRHLQQTLMKATK) [compound 171]
Percent of Control Activity (C2C12 Cells): 110%
Percent of Isoproterenol Control Activity (3T3-L1 Mouse Adipocytes): 104%
Percent of Control Activity (H4-IIE Cells): 100%

172 (MYTNKQCSTSNYY) [compound 172]
Percent of Control Activity (C2C12 Cells): 106%
Percent of Isoproterenol Control Activity (3T3-L1 Mouse Adipocytes): 94%
Percent of Control Activity (H4-IIE Cells): 111%

173 (MYTPTNNVQPVTTTNQRP) [compound 173]
Percent of Control Activity (C2C12 Cells): 95%
Percent of Isoproterenol Control Activity (3T3-L1 Mouse Adipocytes): 114%
Percent of Control Activity (H4-IIE Cells): 103%

174 (MYYSDGYWGVSWGMGV) [compound 174]
Percent of Control Activity (C2C12 Cells): 93%
Percent of Isoproterenol Control Activity (3T3-L1 Mouse Adipocytes): 105%
Percent of Control Activity (H4-IIE Cells): 110%

176 (MKNIEAPLAW) [compound 176]
Percent of Control Activity (C2C12 Cells): 103%
Percent of Isoproterenol Control Activity (3T3-L1 Mouse Adipocytes): 95%
Percent of Control Activity (H4-IIE Cells): 108%

177 (MRMGASIGSTTRLSTS) [compound 177]
Percent of Control Activity (C2C12 Cells): 91%
Percent of Isoproterenol Control Activity (3T3-L1 Mouse Adipocytes): 94%
Percent of Control Activity (H4-IIE Cells): 111%

178 (MVQTVSISWASEMLVLVSFVVSV) [compound 178]
Percent of Control Activity (C2C12 Cells): 99%
Percent of Isoproterenol Control Activity (3T3-L1 Mouse Adipocytes): 90%
Percent of Control Activity (H4-IIE Cells): 108%

179 (MSSSMMGEVASC) [compound 179]
Percent of Control Activity (C2C12 Cells): 105%
Percent of Isoproterenol Control Activity (3T3-L1 Mouse Adipocytes): 102%
Percent of Control Activity (H4-IIE Cells): 100%

180 (MVVGSWCWSLSWVVGMR) [compound 180]
Percent of Control Activity (C2C12 Cells): 103%
Percent of Isoproterenol Control Activity (3T3-L1 Mouse Adipocytes): 101%
Percent of Control Activity (H4-IIE Cells): 106%

181 (MCHWAGGASNTGDA) [compound 181]
Percent of Control Activity (C2C12 Cells): 107%
Percent of Isoproterenol Control Activity (3T3-L1 Mouse Adipocytes): 103%
Percent of Control Activity (H4-IIE Cells): 109%

182 (MFAVSMMWSLE) [compound 182]
Percent of Control Activity (C2C12 Cells): 98%
Percent of Isoproterenol Control Activity (3T3-L1 Mouse Adipocytes): 92%
Percent of Control Activity (H4-IIE Cells): 113%

183 (MMKVDATMDFT) [compound 183]
Percent of Control Activity (C2C12 Cells): 101%
Percent of Isoproterenol Control Activity (3T3-L1 Mouse Adipocytes): 94%
Percent of Control Activity (H4-IIE Cells): 121%

184 (MASAKGCSSP) [compound 184]
Percent of Control Activity (C2C12 Cells): 106%
Percent of Isoproterenol Control Activity (3T3-L1 Mouse Adipocytes): 104%
Percent of Control Activity (H4-IIE Cells): 118%

185 (MLVMLEVMFLVN) [compound 185]
Percent of Control Activity (C2C12 Cells): 92%
Percent of Isoproterenol Control Activity (3T3-L1 Mouse Adipocytes): 86%
Percent of Control Activity (H4-IIE Cells): 119%

186 (MIINDEYWLVVLVMVHCPESMLLK) [compound 186]
Percent of Control Activity (C2C12 Cells): 94%
Percent of Isoproterenol Control Activity (3T3-L1 Mouse Adipocytes): 105%
Percent of Control Activity (H4-IIE Cells): 115%

187 (AYEGCCYSCKQEDNADVSGFWVEK) [compound 187]
Percent of Control Activity (C2C12 Cells): 110%
Percent of Isoproterenol Control Activity (3T3-L1 Mouse Adipocytes): 102%
Percent of Control Activity (H4-IIE Cells): 113%

188 (DWSNWVWGVQLYVWDFLGSGCWAW) [compound 188]
Percent of Control Activity (C2C12 Cells): 113%
Percent of Isoproterenol Control Activity (3T3-L1 Mouse Adipocytes): 104%
Percent of Control Activity (H4-IIE Cells): 125%

189 (FEELINVWVWVYMSQWEFYDGPCN) [compound 189]
Percent of Control Activity (C2C12 Cells): 98%
Percent of Isoproterenol Control Activity (3T3-L1 Mouse Adipocytes): 95%
Percent of Control Activity (H4-IIE Cells): 116%

190 (MYHSENSMMDHVTNNATGMNIMEK) [compound 190]
Percent of Control Activity (C2C12 Cells): 107%
Percent of Isoproterenol Control Activity (3T3-L1 Mouse Adipocytes): 101%
Percent of Control Activity (H4-IIE Cells): 118%

191 (LGWGWPGGWVWGGGFMVEERWWEL) [compound 191]
Percent of Control Activity (C2C12 Cells): 95%
Percent of Isoproterenol Control Activity (3T3-L1 Mouse Adipocytes): 101%
Percent of Control Activity (H4-IIE Cells): 111%

192 (LGWVVGSFFMGGVWVGRSGIGGML) [compound 192]
Percent of Control Activity (C2C12 Cells): 98%
Percent of Isoproterenol Control Activity (3T3-L1 Mouse Adipocytes): 104%
Percent of Control Activity (H4-IIE Cells): 110%

193 (LHNNPNPNTNYLPNWKQNTQMGLS) [compound 193]
Percent of Control Activity (C2C12 Cells): 110%
Percent of Isoproterenol Control Activity (3T3-L1 Mouse Adipocytes): 105%
Percent of Control Activity (H4-IIE Cells): 110%

194 (LSPKPQQLNQQNCSPEHYEPQLKT) [compound 194]
Percent of Control Activity (C2C12 Cells): 92%
Percent of Isoproterenol Control Activity (3T3-L1 Mouse Adipocytes): 103%
Percent of Control Activity (H4-IIE Cells): 109%

195 (LTSKYSNQPSTITHQLQLQSHPSP) [compound 195]
Percent of Control Activity (C2C12 Cells): 112%
Percent of Isoproterenol Control Activity (3T3-L1 Mouse Adipocytes): 110%
Percent of Control Activity (H4-IIE Cells): 108%

196 (LVPFDRGDLEGELTGTGMLACVIL) [compound 196]
Percent of Control Activity (C2C12 Cells): 97%
Percent of Isoproterenol Control Activity (3T3-L1 Mouse Adipocytes): 98%
Percent of Control Activity (H4-IIE Cells): 116%

197 (WVEVMMEVEIWCCEIVLGNSFSSQ) [compound 197]
Percent of Control Activity (C2C12 Cells): 102%
Percent of Isoproterenol Control Activity (3T3-L1 Mouse Adipocytes): 100%
Percent of Control Activity (H4-IIE Cells): 105%

198 (PIVTIMSPSWLEVEKATIFLMSFC) [compound 198]
Percent of Control Activity (C2C12 Cells): 88%
Percent of Isoproterenol Control Activity (3T3-L1 Mouse Adipocytes): 112%
Percent of Control Activity (H4-IIE Cells): 100%

199 (PLCKIHCRIHLYYQSLPHNNIHVP) [compound 199]
Percent of Control Activity (C2C12 Cells): 94%
Percent of Isoproterenol Control Activity (3T3-L1 Mouse Adipocytes): 105%
Percent of Control Activity (H4-IIE Cells): 111%

200 (RLLAWGNTWWQLLWNEGLFFWLEL) [compound 200]
Percent of Control Activity (C2C12 Cells): 93%
Percent of Isoproterenol Control Activity (3T3-L1 Mouse Adipocytes): 104%
Percent of Control Activity (H4-IIE Cells): 97%

201 (TKNFHQTPPPPLLATALKHISAKP) [compound 201]
Percent of Control Activity (C2C12 Cells): 96%
Percent of Isoproterenol Control Activity (3T3-L1 Mouse Adipocytes): 102%
Percent of Control Activity (H4-IIE Cells): 109%

202 (MWVIEEYAKILRSWVWFNPPQLPA) [compound 202]
Percent of Control Activity (C2C12 Cells): 89%
Percent of Isoproterenol Control Activity (3T3-L1 Mouse Adipocytes): 93%
Percent of Control Activity (H4-IIE Cells): 103%
